Test results as given in patent US4510142A, “Derivatives of biphenyl alkyl carboxylates and their use as medicaments” (Pierre Fabre S.A., priority 1981, dated 1985).
Counter-ions that a name gives are not always drawn. Like-named read-outs stand apart in the source and are kept apart here.

How the values were obtained:
[1] = system: carragenine oedema, rat's foot; assay: anti-inflammatory oedema test by injecting carragenine into a rat's foot (Winter, Ribley and Nuss); type: in vivo
Protocol: Winter, E. Ribley and G. Nuss--Proc. Soc. Exper. Biol. Med., 1962, 111, 544 547.
The products were administered orally in suspension in a Tween-water mixture 2 hours before the experiment. All the administered compounds have a good anti-inflammatory activity. It will particularly be noted that the compound of Example 14 has a DE50 of 3 mg/kg.

in vivo = details: mouse, in vivo, po
Protocol: (§1) A toxicity study was carried out on conventional mice weighing about 20 grams.
(§2) The compounds corresponding to the general formula I according to the present invention and the pharmaceutically acceptable salts thereof were administered orally. The DL50 was calculated according to the method by L. C. Miller and M. L. Tainter--Proc. Soc. Exper.

[2] = system: pain (phenyl benzoquinone injection); assay: pain-killing activity according to Siegmund (phenyl benzoquinone injection); type: in vivo; details: oral, 30 minutes before injection of phenyl benzoquinone; read-out: DE50 (pain-killing activity)
Protocol: The pain-killing activity was studied according to Siegmund--J. Pharm. Exptl. ther., 1957, 119,453.
The compounds according to the present invention were administered orally 30 minutes before the injection of phenyl benzoquinone.

conventional mice = assay: in vivo; details: p.o.; comparison products
Protocol: as §1, §2

[3] = Rattus norvegicus, po, read-out: DE50 (carragenine)
[4] = Rattus norvegicus, po, comparison products, read-out: DE50 (carragenine)

CC(=O)Oc1ccccc1C(=O)O [Aspirin]
ED50 [1, 3]: 135 mg/kg

CC(C(=O)OCC(=O)N1CCN(C)CC1)c1ccc(-c2ccccc2Cl)cc1 (stereo not drawn) [Example 12, 2-(4-methylpiperazino)-2-oxoethyl 2-(2'-chloro-4-biphenylyl)propionate hydrochloride]
LD50 (in vivo): > 500 mg/kg
ED50 [2]: 7 mg/kg

CC(C(=O)OCC(=O)N1CCC(c2ccccc2)CC1)c1ccc(-c2ccccc2Cl)cc1 (stereo not drawn) [Example 14, 2-(4-phenylpiperidino)-2-oxoethyl 2-(2'-chloro-4-biphenylyl)propionate]
LD50 (in vivo): > 500 mg/kg
ED50 [2]: 5 mg/kg
ED50 ([1]; rat, oral suspension in Tween-water, 2 hours before the experiment, read-out: DE50 (anti-inflammatory activity)): 3 mg/kg

CC(C)Cc1ccc(C(C)C(=O)O)cc1 (stereo not drawn) [Ibuprofen]
ED50 [1, 4]: 14 mg/kg

COc1ccc2c(c1)c(CC(=O)O)c(C)n2C(=O)c1ccc(Cl)cc1 [Indometacine]
LD50 (conventional mice): 20 mg/kg
ED50 [1, 3]: 4 mg/kg

COc1ccc2cc([C@H](C)C(=O)O)ccc2c1 [Naproxen]
ED50 [1, 4]: 5 mg/kg

Phenylbutanone
LD50 (conventional mice): 400 mg/kg
DE50 (carragenine) ([1]; p.o., comparison products): 30 mg/kg
